# Test system: acute promyelocytic leukemia (HL-60) cells
# Assay: MTT colorimetric cytotoxicity test
# Type: cell-based
# Details: 72 hours of incubation, compared with DOXO in free form
# Method: MTT (3- (4,5-dimethylthiazol-2-yl) -2,5-diphenyl-2H-tetrazolium bromide) colorimetric test allows the quantitation of living cells whose mitochondrial activity is maintained in the culture medium. […] P<0.05 was considered significant.
# According to MTT experiments, after 72 hours of incubation, the effect of DOXO in free form, i.e., not loaded on AuNps, as well as the DOXO-loaded AuNps was investigated for acute promyelocytic leukemia (HL-60) and chronic myeloid leukemia (K562) cells, and the results are given in Figure 5 and Figure 6, respectively.
smiles,measurement,value
"COc1cccc2c1C(=O)c1c(O)c3c(c(O)c1C2=O)C[C@@](O)(C(=O)CO)C[C@@H]3O[C@H]1C[C@H](N)[C@H](O)[C@H](C)O1 [DOXO, Doxorubicin]",cytotoxic effect (cell viability),should be used in higher amounts in order to have a similar cytotoxic effect

# — patent publication EP4211126B1, “PHOTOCHEMICAL SYNTHESIS OF LOW PARTICLE SIZE MONODISPERSE GOLD NANOPARTICLES, LOADING WITH CANCER DRUG, AND DETERMINATION OF CYTOTOXIC ACTIVITY OF THE SAME” (Yildiz Teknik Universitesi, priority 2020, dated 2022)
